From article PMC6993142 (Journal of natural products, 2017)

What was measured:
[1] = MTS dye cytotoxicity assay, normal HFF cells; type: cell-based; details: human, HFF cells (normal foreskin fibroblasts)
[2] = MTS dye cytotoxicity assay, whole panel; type: cell-based; details: human
[3] = tested on: LNCaP (androgen-sensitive human prostate adenocarcinoma); test: MTS dye cytotoxicity assay, LNCaP; type: cell-based; details: for IC50: Homo sapiens, LNCaP, 72 h, read-out: Cytotoxicity IC50, LNCaP, LNCaP, 72 h, MTS
[4] = tested on: A549, Hep G2, Hep 3B, MCF-7 and MDA-MB-231 cell lines; details: MCF-7, MDA-MB-231, ref 11f; cited from earlier work
[5] = tested on: MCF-7, MDA-MB-231, H1299, Ca9–22 and HT-29 cells; details: MCF-7, MDA-MB-231, H1299, Ca9–22, HT-29; ref 11j, 11h, 11k, 11n; cited from earlier work
[6] = tested on: ACHN (human renal adenocarcinoma); test: MTS dye cytotoxicity assay, ACHN; type: cell-based; details: of the 26 withanolides tested
[7] = tested on: RC cells (ACHN, Caki-1, and SN-12-C); details: in the presence of TRAIL; cited from earlier work
[8] = tested on: LNCaP (androgen-sensitive human prostate adenocarcinoma); details: previously shown; cited from earlier work

SMILES | IC50 at 72 h [1] | IC50 at 72 h [2] | also measured
CC1=C(C)[C@H](O)[C@H]([C@](C)(O)[C@]2(O)CC[C@@]3(O)[C@@H]4C[C@H]5O[C@]56CC=CC(=O)[C@]6(C)[C@H]4CC[C@]23C)OC1=O [Compound 6, (20S,22R)-5β,6β-epoxy-14α,17β,20,23β-tetrahydroxy-1-oxowitha-2,24-dienolide] | > 2000 nM | – | –
CC1=C(C)C(=O)O[C@@H]([C@](C)(O)C2=CC[C@@]3(O)[C@@H]4C[C@H]5O[C@]56CC=CC(=O)[C@]6(C)[C@H]4CC[C@]23C)C1 [Compound 7, (20S,22R)-5β,6β-epoxy-14α,20-dihydroxy-1-oxowitha-2,16,24-trienolide] | – | > 5000 nM | –
CC1=C(C)C(=O)O[C@@H]([C@](C)(O)[C@]2(O)CC[C@@]3(O)[C@@H]4[C@@H](O)C=C5CC=CC(=O)[C@]5(C)[C@H]4CC[C@]23C)C1 [Compound 8, (20S,22R)-7β,14α,17β,20-tetrahydroxy-1-oxowitha-2,5,24-trienolide] | > 2000 nM | – | IC50 [3]: < 2000 nM
CC1=C(C)C(=O)O[C@@H]([C@](C)(O)[C@]2(O)CC[C@@]3(O)[C@@H]4[C@@H](O)C=C5C=CCC(=O)[C@]5(C)[C@H]4CC[C@]23C)C1 [Compound 9, (20S,22R)-7β,14α,17β,20-tetrahydroxy-1-oxowitha-3,5,24-trienolide] | > 2000 nM | – | IC50 [3]: < 2000 nM
C[C@H]1C(=O)O[C@@H]([C@](C)(O)[C@H]2CC[C@@]3(O)[C@@H]4CC=C5CC=CC(=O)[C@]5(C)[C@H]4CC[C@]23C)[C@@H](O)[C@@H]1CO [Compound 10, (20S,22R)-14α,20,23β,28-tetrahydroxy-1-oxowitha-2,5-dienolide] | – | > 5000 nM | –
C[C@H]1C[C@H]([C@](C)(O)[C@]2(O)CC[C@@]3(O)[C@@H]4C[C@H]5O[C@]56CC=CC(=O)[C@]6(C)[C@H]4CC[C@]23C)OC(=O)[C@@H]1C [Compound 11, (20S,22R,24S,25R)-5β,6β-epoxy-14α,17β,20-trihydroxy-1-oxowitha-2-enolide] | > 2000 nM | – | –
CC1=C(C)C(=O)O[C@@H]([C@](C)(O)[C@]2(O)CC[C@@]3(O)[C@@H]4C[C@H]5O[C@]56[C@@H](O)C=CC(=O)[C@]6(C)[C@H]4CC[C@]23C)C1 [Compound 12, 4β-hydroxywithanolide E] | > 2000 nM | – | Cytotoxic to cancer cell lines [4]: cytotoxic; Inhibition of proliferation [5]: inhibit proliferation
CC1=C(C)C(=O)O[C@@H]([C@](C)(O)[C@]2(O)CC[C@@]3(O)[C@@H]4C[C@H]5O[C@]56CC=CC(=O)[C@]6(C)[C@H]4CC[C@]23C)C1 [Compound 13, withanolide E] | > 2000 nM | – | Selectivity for renal carcinoma (ACHN) cells [6]: showed selectivity; Cytotoxic to cancer cell lines [4]: cytotoxic; Long-term survival of RC cells [7]: eliminate long-term survival
CC1=C(C)C(=O)O[C@@H]([C@](C)(O)C2=CC[C@@]3(O)[C@@H]4C[C@H]5O[C@]56[C@@H](O)C=CC(=O)[C@]6(C)[C@H]4CC[C@]23C)C1 [Compound 14, phyperunolide A] | – | > 5000 nM | Cytotoxic to cancer cell lines [4]: cytotoxic
CO[C@H]1C=CC(=O)[C@]2(C)[C@H]3CC[C@]4(C)[C@](O)([C@@](C)(O)[C@H]5CC(C)=C(C)C(=O)O5)CC[C@@]4(O)[C@@H]3C[C@H]3O[C@]132 [Compound 15, withangulatin E] | > 2000 nM | – | IC50 [3]: < 2000 nM
CO[C@]12CC=CC(=O)[C@]1(C)[C@H]1CC[C@]3(C)[C@](O)([C@@](C)(O)[C@H]4CC(C)=C(C)C(=O)O4)CC[C@@]3(O)[C@@H]1C[C@H]2O [Compound 16, withanolide S 5-methyl ether] | – | > 5000 nM | –
CC1=C(C)C(=O)O[C@@H]([C@](C)(O)[C@]2(O)CC[C@@]3(O)[C@@H]4C[C@H](Cl)[C@]5(O)[C@@H](O)C=CC(=O)[C@]5(C)[C@H]4CC[C@]23C)C1 [Compound 17, physalolactone] | – | > 5000 nM | –
CC1=C(C)C(=O)O[C@@H]([C@](C)(O)[C@]2(O)CC[C@@]3(O)[C@@H]4C[C@@H](O)[C@@]5(O)CC=CC(=O)[C@]5(C)[C@H]4CC[C@]23C)C1 [Compound 18, withanolide S] | – | > 5000 nM | –
CC1=C(C)C(=O)O[C@@H]([C@](C)(O)[C@]2(O)CC[C@@]3(O)[C@@H]4[C@@H](O)[C@H]5O[C@]56CC=CC(=O)[C@]6(C)[C@H]4CC[C@]23C)C1 [Compound 19, withaperuvin L] | > 2000 nM | – | –
CC1=C(C)C(=O)O[C@@H]([C@](C)(O)[C@]2(O)CC[C@@]3(O)[C@@H]4CC=C5[C@@H](O)C=CC(=O)[C@]5(C)[C@H]4CC[C@]23C)C1 [Compound 20, physapruin A] | > 2000 nM | – | Selectivity for renal carcinoma (ACHN) cells [6]: showed selectivity
CC1=C(CO)C[C@H]([C@](C)(O)[C@]2(O)CC[C@@]3(O)[C@@H]4CC=C5CC=CC(=O)[C@]5(C)[C@H]4CC[C@]23C)OC1=O [Compound 21, withaperuvin J] | > 2000 nM | – | –
CC1=C(C)C(=O)O[C@@H]([C@](C)(O)[C@]2(O)CC[C@@]3(O)[C@@H]4CC=C5CC=CC(=O)[C@]5(C)[C@H]4CC[C@]23C)C1 [Compound 22, withanolide F] | > 2000 nM | – | –
CC1=C(C)C(=O)O[C@@H]([C@](C)(O)[C@]2(O)CC[C@@]3(O)[C@@H]4C[C@H](Cl)[C@]5(O)CC=CC(=O)[C@]5(C)[C@H]4CC[C@]23C)C1 [Compound 23, 4-deoxyphysalolactone] | – | > 5000 nM | –
C[C@H]1C(=O)OC[C@H]1C[C@@H](O)[C@](C)(O)[C@]1(O)CC[C@@]2(O)[C@@H]3CC=C4CC=CC(=O)[C@]4(C)[C@H]3CC[C@]12C [Compound 24, perulactone B] | – | > 5000 nM | –
C[C@H]1C(=O)OC[C@H]1C[C@@H](O)[C@](C)(O)[C@@]1(O)CC[C@@]2(O)[C@@H]3CC=C4CC=CC(=O)[C@]4(C)[C@H]3CC[C@]12C [Compound 25, perulactone H] | – | > 5000 nM | –
CC(=O)OC[C@]12CC[C@H]3[C@@H](C[C@H]4O[C@]45CC=CC(=O)[C@]35C)[C@]1(O)CC[C@@]2(O)[C@@](C)(O)[C@H]1CC(C)=C(C)C(=O)O1 [Compound 26, Physachenolide C, reference compound] | > 2000 nM | – | Enhancement of activity (26 vs 13) ([3]; LNCaP cells, acetoxylation at C-18): 3 fold; Selectivity for renal carcinoma (ACHN) cells [6]: showed selectivity; Activity for LNCaP cells [8]: selective and potent activity
CC1=C(C)C(=O)O[C@@H]([C@](C)(O)[C@]2(O)CC[C@@]3(O)[C@@H]4C[C@@H](O)[C@@]5(Cl)CC=CC(=O)[C@]5(C)[C@H]4CC[C@]23C)C1 [Compound 27, withanolide C, reference compound] | – | – | Cytotoxic to cancer cell lines [4]: cytotoxic
